Structures can show the parent of a compound that is named as a salt.
Key:
[1] = Example 7: stability of sapropterin hydrochloride blended 200:1 with coloring agents; type: physicochemical
Experimental: Sapropterin hydrochloride was mixed at a 200:1 ratio with different coloring agents. 0.2 g of each mixture was placed in a glass vial, which was then sealed with a metal cap and was stored at 40° C. and 75% RH for 4 weeks. Subsequently, the mixtures were evaluated for stability (i.e., change in appearance, amount of remaining active ingredient).

[2] = Example 2: stability of sapropterin hydrochloride mixed 1:5 with sweeteners, uncapped vial 40° C., 75% RH; type: physicochemical; conditions: 8 weeks
Experimental: Sapropterin hydrochloride was mixed at a 1:5 ratio with each of the three sweeteners described above. 2 g of the mixture was placed in a glass vial and the vial was left uncapped at 40° C., 75% RH, to evaluate the stability of the preparation and sapropterin hydrochloride. […] The preparations using sucrose and fructose even underwent deliquescence. The remaining sapropterin hydrochloride was quantified by liquid chromatography that can differentiate sapropterin hydrochloride from its analogues. The area of the peak for sapropterin hydrochloride was determined and was used to calculate the remaining sapropterin hydrochloride (The same procedure was followed in other examples).

C[C@H](O)[C@H](O)[C@H]1CNc2nc(N)[nH]c(=O)c2N1 [None, sapropterin hydrochloride]
% amount remained ([1]; After 4-week storage (40° C./75% RH), sealed vial): 99.6%
Initial appearance ([1]; before storage): White
% amount of remaining sapropterin hydrochloride after storage [2]: 98.7%
Appearance after storage [2]: Yellowish white

Reference: US20080207624A1, “Therapeutic Agent for Bh4-Responsive Hyperphenylalaninemia” (priority 2004, published 2008)
